From patent US6875761B2 (Eisai Co., Ltd., priority 1997, dated 2005)
Counter-ions that a name gives are not always drawn.

Assays:
serotonin 1A receptor = molecular target: T1, serotonin 1A receptor (Rattus norvegicus, UniProt P19327); test: Binding test on [3H] 8-hydroxy-dipropylaminotetralin, hippocampus receptor fraction; design: species or system SD rats; details: rat hippocampus receptor fraction, 0.5 nM [3H] 8-OH-DPAT, room temperature 30 min; read-out: 5HT1
T1 construct: To the receptor fraction of the hippocampus were added a test compound and 0.5 nM of [^3H]; 8-hydroxy-dipropylaminotetralin; from tissue; host or cells: rat hippocampus membrane fraction
T1 sequence (P19327 1-422): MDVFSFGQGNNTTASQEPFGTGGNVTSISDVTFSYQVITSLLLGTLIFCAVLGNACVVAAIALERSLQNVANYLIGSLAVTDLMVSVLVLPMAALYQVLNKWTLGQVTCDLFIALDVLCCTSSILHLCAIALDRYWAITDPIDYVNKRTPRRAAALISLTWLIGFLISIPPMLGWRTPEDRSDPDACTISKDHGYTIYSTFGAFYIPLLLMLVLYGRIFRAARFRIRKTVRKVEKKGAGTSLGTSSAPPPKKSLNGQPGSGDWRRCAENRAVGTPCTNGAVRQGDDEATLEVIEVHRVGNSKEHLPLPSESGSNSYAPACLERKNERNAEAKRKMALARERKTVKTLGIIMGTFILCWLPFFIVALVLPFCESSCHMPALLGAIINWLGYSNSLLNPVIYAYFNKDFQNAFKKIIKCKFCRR

serotonin 2 receptor = molecular target: T2, serotonin 2 receptor (Rattus norvegicus, UniProt P14842); test: Binding test on [3H] ketanserin, cerebral cortex receptor fraction; design: species or system SD rats; details: 0.3 nM [3H] ketanserin, 37° C. 15 min, read-out: 5HT2
T2 construct: To the receptor fraction of the cerebral cortex were added a test compound and 0.3 nM of [^3H] ketanserin; from tissue; host or cells: rat cerebral cortex membrane fraction
T2 sequence (P14842 whole entry): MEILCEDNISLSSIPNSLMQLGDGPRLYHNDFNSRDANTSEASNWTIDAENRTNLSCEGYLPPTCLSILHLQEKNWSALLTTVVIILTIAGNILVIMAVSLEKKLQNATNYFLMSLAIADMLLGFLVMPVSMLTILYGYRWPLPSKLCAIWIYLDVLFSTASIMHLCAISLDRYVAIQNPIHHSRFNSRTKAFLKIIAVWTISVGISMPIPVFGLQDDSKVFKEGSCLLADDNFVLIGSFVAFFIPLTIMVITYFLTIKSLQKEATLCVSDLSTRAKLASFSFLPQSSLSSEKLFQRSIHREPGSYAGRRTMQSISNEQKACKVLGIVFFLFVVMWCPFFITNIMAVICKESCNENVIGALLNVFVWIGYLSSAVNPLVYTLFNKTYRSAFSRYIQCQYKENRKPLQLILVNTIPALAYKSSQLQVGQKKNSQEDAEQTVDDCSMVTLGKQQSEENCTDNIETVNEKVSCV

Ki (serotonin 1A receptor)	Ki (serotonin 2 receptor)	Compound
0.0267 µM	0.0031 µM	CCN1CCN(c2nc(-c3ccc(OCCO)c(C)c3)cc3ccccc23)CC1 [Example 40, 3-[3-methyl-4-(2-hydroxyethoxy)phenyl]-1-(4-ethylpiperazin-1-yl)isoquinoline hydrochloride]
0.0401 µM	0.0456 µM	CCN1CCN(c2nc(-c3ccc(OCCO)c(C(C)C)c3)cc3ccccc23)CC1 [Example 41, 3-[3-isopropyl-4-(2-hydroxyethoxy)phenyl]-1-(4-ethylpiperazin-1-yl)isoquinoline hydrochloride]
0.0293 µM	0.0666 µM	CCN1CCN(c2nc(-c3ccc(OCCOC)c(OCCOC)c3)cc3ccccc23)CC1 [Example 43, 3-[3,4-Di(2-Methoxyethoxy)Phenyl]-1-(4-Ethylpiperazin-1-Yl)Isoquinoline Hydrochloride]
0.058 µM	0.0127 µM	CCN1CCN(c2nc(-c3ccc4c(c3)OCO4)cc3ccccc23)CC1 [Example 46, 3-(3,4-Methylenedioxyphenyl)-1-(4-Ethylpiperazin-1-Yl)Isoquinoline Hydrochloride]
0.103 µM	0.00187 µM	CCN1CCN(c2nc(-c3ccc(OCC#N)cc3)cc3ccccc23)CC1 [Example 51, 3-(4-Cyanomethoxyphenyl)-1-(4-Ethylpiperazin-1-Yl)Isoquinoline Hydrochloride]
0.0612 µM	0.00178 µM	CCN1CCN(c2nc(-c3ccc(OCCCC#N)cc3)cc3ccccc23)CC1 [Example 53, 3-[4-(3-Cyanopropoxy)Phenyl]-1-(4-Ethylpiperazin-1-Yl)Isoquinoline Hydrochloride]
0.0621 µM	0.0049 µM	CCN1CCN(c2nc(-c3ccc(OCCCSC)cc3)cc3ccccc23)CC1 [Example 54, 3-[4-(3-Methylthiopropoxy)Phenyl]-1-(4-Ethylpiperazin-1-Yl)Isoquinoline Hydrochloride]
0.0572 µM	0.0046 µM	CCN1CCN(c2nc(-c3ccc(OCCCc4ccncc4)cc3)cc3ccccc23)CC1 [Example 57, 3-{4-[3-(4-Pyridyl)Propoxy]Phenyl}-1-(4-Ethylpiperazin-1-Yl)Isoquinoline Hydrochloride]

Second part, the compound before the results:

Compound	Ki (serotonin 1A receptor)	Ki (serotonin 2 receptor)
CCN1CCN(c2nc(-c3cc(OCCO)cc(OCCO)c3)cc3ccccc23)CC1 [Example 38, 3-[3,5-di(2-hydroxyethoxy)phenyl]-1-(4-ethylpiperazin-1-yl)isoquinoline hydrochloride]	0.0208 µM	0.0757 µM
CCN1CCN(c2nc(-c3ccc(OCCO)c(Cl)c3)cc3ccccc23)CC1 [Example 39, 3-[3-chloro-4-(2-hydroxyethoxy)phenyl]-1-(4-ethylpiperazin-1-yl)isoquinoline hydrochloride]	0.026 µM	0.0049 µM
CCN1CCN(c2nc(-c3ccc(COCCO)cc3)cc3ccccc23)CC1 [Example 44, 3-[4-(2-Hydroxyethoxylmethylphenyl]-1-(4-ethylpiperazin-1-Yl)Isoquinoline Hydrochloride]	0.0554 µM	0.009 µM
CCN1CCN(c2nc(-c3ccc(OCC(C)=O)cc3)cc3ccccc23)CC1 [Example 47, 1-(1-Ethylpiperazin-4-Yl)-3-(4-Acetonyloxyphenyl)Isoquinoline]	0.0253 µM	0.0026 µM
CCN1CCN(c2nc(-c3ccc(OCCCNC(C)=O)cc3)cc3ccccc23)CC1 [Example 50, 3-[4-(3-Acetamidepropoxy)Phenyl]-1-(4-Ethylpiperazin-1-Yl)Isoquinoline Hydrochloride]	0.0252 µM	0.0219 µM
CCN1CCN(c2nc(-c3ccc(OCCCS(C)(=O)=O)cc3)cc3ccccc23)CC1 [Example 55, 3-[4-(3-Methylsulfonpropoxy)Phenyl]-1-(4-Ethylpiperazin-1-Yl)Isoquinoline Hydorchloride]	0.0104 µM	0.0153 µM
CCN1CCN(c2nc(-c3ccc(OCCn4ccnc4)cc3)cc3ccccc23)CC1 [Example 56, 3-{4-[2-(1-Imidazonyl)Ethoxy]phenyl}-1-(4-Ethylpiperazin-1-Yl)Isoquinoline Hydrochloride]	0.0374 µM	0.0595 µM
